Laboratory results: patent US12076368B2, “Treatment of liver, biliary tract and pancreatic disorders” (Novozymes A/S, priority 2016, dated 2024)
Positions of bridges follow the written chain, without caps; N, C: chain ends. No end group written: not given here.

Assays:
[1] = test system: Dextran Sodium Sulphate (DSS) Induced Colitis Model in Mice; assay: Acute 10-day DSS induced colitis model, hBD-2-albumin fusion N-terminal (Example 8); format: in vivo; conditions: fusion iv or sc daily; DEX 1 mg/kg sc OD
Procedure: “hBD-2-albumin N-terminal” was administered intravenously via the tail vein or subcutaneously with the use of a sterile 25 G needle in a dosing volume of 10 ml/kg body weight. The animals received 1 dose daily for 10 executive days.

C57Bl/6J DIO male mice = assay: GLP-1 analog (liraglutide) treatment of high fat diet fed DIO mice (Example 5); format: in vivo; conditions: 0.2 mg/kg BID subcutaneously, 4 weeks
Excerpt: FIG. 31: Schematic outline of the experimental set up for investigating the effects of a GLP-1 analog (Liraglutid) on mouse gut inflammation and microbiota. At week −40, the C57/BI/6J DIO mice arrived. The mice were fed a high fat diet 60% fat, SSNIFF (Diet #D12492) or purina chow for 38 weeks to achieve an average body weight of 55 gram. From week −2 the mice were single housed. Faecal samples were collected on day −1 and 27 for 16S RNA analysis. Samples from ilium were collected 2 cm from caecum at day 28.
4 weeks old C57Bl/6J DIO male mice were fed a high fat diet (HFD 60% fat, SSNIFF (Diet #D12492)) or purina chow for […]. The HFD fed group had reached an average weight of approximately 55 grams by start of intervention. The mice were group housed 10 per cage until week −2. From week −2 the mice were single housed throughout the study. Feed intake was registered daily just before lights were turned off at 3 pm. Individual mice were subjected to experimental procedures in altered order both group and cage wise. Mice were kept at room temperature under a 12-hour light/dark cycle at SPF standard conditions.
Mice were fed either a high fat diet (HFD) or a low fat (LF) control diet. The HFD contained 2 subgroups; 1 GLP-1 analog and 1 standard HFD without supplementation of GLP-1 analog. The GLP-1 analog liraglutide was dissolved in PBS and 0.1% BSA was added. The GLP-1 analog was administered at 0.2 mg/kg BID subcutaneously.

[2] = test system: Dextran Sodium Sulphate (DSS) Induced Colitis Model in Mice; assay: Acute 10-day DSS induced colitis model, hBD-2-albumin fusion C-terminal (Example 9); format: in vivo; conditions: Pred 1 mg/kg orally daily
Procedure: “hBD-2-albumin C-terminal” was administered intravenously via the tail vein or subcutaneously with the use of a sterile 25 G needle in a dosing volume of 10 ml/kg body weight. The animals received 1 dose daily for 10 […] days. The active control Prednisolone (Pred) was given orally by gavage at a dose of 1 mg/kg in a dosing volume of 10 ml/kg body weight OD.

[3] = Pharmacokinetics of hBD-2 after single oral gavage (Example 6); format: in vivo, NMRI mice; conditions: oral dosing of 4 mg/kg in mice
Procedure: FIG. 35. Pharmacokinetic data following oral administration of 4 mg/kg hBD-2 to female NMRI mice. […] The results are given as group mean+/−SEM.
21 female NMRI mice were dosed by oral gavage 5 ml/kg using a gavage tube and a 1 ml syringe according to the individual body weight obtained on the day of dosing. Urine was strived sampled at random time points by gently massaging the inguinal area of the abdomen. The first blood sample was taken using a submandibular sampling method. The second blood sample was collected from Isoflurane anaesthetised mice. Intestinal samples were taken after euthanasia. The abdomen of each mouse was opened and three sections of the intestines were sampled.

[4] = Pharmacokinetics of hBD-2 and hBD-2-albumin fusions after subcutaneous or intravenous administration (Example 7); format: in vivo, NMRI female mice; conditions: hBD-2 1 mg/kg
Procedure: FIG. 36. Pharmacokinetic data for hBD-2 following subcutaneous (SC) and intravenous (IV) administration of 1 mg/kg respectively. […] The different curves represent different experiments and detection methods (HPLC and ELISA).
FIG. 37. Pharmacokinetic data for “hBD-2-albumin fusion N-terminal” following subcutaneous and intravenous administration of 16.5 mg/kg respectively. […] The results are the mean of 4 mice/sampling time+/−SD.
FIG. 38. Pharmacokinetic data for “hBD-2-albumin fusion C-terminal” following subcutaneous and intravenous administration of 16.5 mg/kg respectively. […] The results are the mean of 4 mice/sampling time+/−SD.
The animals were dosed 10 ml/kg of stock concentration of 1.65 mg/ml according to the individual body weight (300 μL for a 30 gram mouse). First blood sample was taken using a submandibular sampling method and the second following Isoflurane anaesthesia and euthanasia.

[5] = degradation by dipeptidyl peptidase-4; cited from earlier work
isolated hepatocytes = conditions: Liu et al. (2008); cited from earlier work
[6] = compared to untreated HFD reference group

In the case of C[C@@H]1C[C@H]2[C@@H]3CCC4=CC(=O)C=C[C@]4(C)[C@@]3(F)[C@@H](O)C[C@]2(C)[C@@]1(O)C(=O)CO [DEX, Dexamethasone], the body weight [1] is reported as “very significant decrease in body weight from day 5 onwards” and the “histological damage of colonic tissue” value [1] is reported as “failed to significantly reduce histological injury”.
For CCCCCCCCCCCCCCCC(=O)N[C@@H](CCC(=O)NCCCC[C@H](NC(=O)[C@H](C)NC(=O)[C@H](C)NC(=O)[C@H](CCC(N)=O)NC(=O)CNC(=O)[C@H](CCC(=O)O)NC(=O)[C@H](CC(C)C)NC(=O)[C@H](Cc1ccc(O)cc1)NC(=O)[C@H](CO)NC(=O)[C@H](CO)NC(=O)[C@@H](NC(=O)[C@H](CC(=O)O)NC(=O)[C@H](CO)NC(=O)[C@@H](NC(=O)[C@H](Cc1ccccc1)NC(=O)[C@@H](NC(=O)CNC(=O)[C@H](CCC(=O)O)NC(=O)[C@H](C)NC(=O)[C@@H](N)Cc1cnc[nH]1)[C@@H](C)O)[C@@H](C)O)C(C)C)C(=O)N[C@@H](CCC(=O)O)C(=O)N[C@@H](Cc1ccccc1)C(=O)N[C@H](C(=O)N[C@@H](C)C(=O)N[C@@H](Cc1c[nH]c2ccccc12)C(=O)N[C@@H](CC(C)C)C(=O)N[C@H](C(=O)N[C@@H](CCCNC(=N)N)C(=O)NCC(=O)N[C@@H](CCCNC(=N)N)C(=O)NCC(=O)O)C(C)C)[C@@H](C)CC)C(=O)O [GLP-1 analog, liraglutide], the “liver weight at termination vs chow fed mice” value (C57Bl/6J DIO male mice) was “not statistically significantly different”, the body weight lost (C57Bl/6J DIO male mice; [6]) was 25-30% and the “body weight lost (average)” value (C57Bl/6J DIO male mice; [6]) was 15 gram. For the same compound, the “plasma cholesterol level vs HFD reference group” value (C57Bl/6J DIO male mice; p<0.01) was “statistically significantly lower”.
In the case of C[C@]12C=CC(=O)C=C1CC[C@@H]1[C@@H]2[C@@H](O)C[C@@]2(C)[C@H]1CC[C@]2(O)C(=O)CO [Pred, Prednisolone], the “histological injury, proximal part of the colon” value [2] is reported as “failed to significantly reduce histological injury in the proximal part of the colon”, the “histological injury, distal colon” value ([2]; p<0.01) is reported as “did reduce the injury in the distal colon” and the DAI ([2]; p<0.05) is reported as “significant inhibition of the DAI on day 9”.
For “GIGDPVTCLKSGAICHPVFCPRRYKQIGTCGLPGTKCCKKP (disulfide 8-37, 15-30, 20-38) [hBD-2, human beta defensin 2]”, the “systemic availability after oral dosing” value [3] was “not systemically available” and the renal clearance [4] was 10 mL/min.
In the case of Glucagon-like peptide-1 [GLP-1], the “half-life in the circulation” value [5] is given as “less than 2 minutes”.
In the case of human neutrophil peptide 1 [HNP-1], the glycogenolysis and gluconeogenesis (isolated hepatocytes) is given as “able to inhibit glycogenolysis and gluconeogenesis in isolated hepatocytes”.
In the case of “human neutrophil peptide 2 (CYCRIPACIAGERRYGTCIYQGRLWAFCC; listed as Homo sapiens) [HNP-2, alpha defensin produced by leucocytes]”, the glycogenolysis and gluconeogenesis (isolated hepatocytes) is listed as “able to inhibit glycogenolysis and gluconeogenesis in isolated hepatocytes”.
